In one test the target is DOR (Homo sapiens, UniProt P41143). Nature of the test: Opioid secondary binding, DOR (Table 4). The following applies: Opioid secondary binding activity for Formula 10 analogs.
The next test has as its target KOR (Homo sapiens, UniProt P41145). The test can be described thus: Opioid secondary binding, KOR (Tables 4, 5, 8, 9). The following applies: Opioid secondary binding activity for Formula 10 analogs; read-out: KOR, Ki.

Sequence of KOR (P41145 whole entry): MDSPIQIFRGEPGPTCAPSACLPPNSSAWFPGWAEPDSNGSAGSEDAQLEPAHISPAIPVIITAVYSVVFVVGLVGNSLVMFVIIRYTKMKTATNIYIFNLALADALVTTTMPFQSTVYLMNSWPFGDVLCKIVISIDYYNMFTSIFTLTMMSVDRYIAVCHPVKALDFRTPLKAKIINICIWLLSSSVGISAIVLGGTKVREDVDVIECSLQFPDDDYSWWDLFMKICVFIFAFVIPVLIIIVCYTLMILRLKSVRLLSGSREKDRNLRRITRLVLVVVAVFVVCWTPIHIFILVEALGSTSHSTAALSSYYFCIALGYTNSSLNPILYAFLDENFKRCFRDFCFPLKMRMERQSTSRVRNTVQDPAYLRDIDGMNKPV
Sequence of DOR (P41143 whole entry): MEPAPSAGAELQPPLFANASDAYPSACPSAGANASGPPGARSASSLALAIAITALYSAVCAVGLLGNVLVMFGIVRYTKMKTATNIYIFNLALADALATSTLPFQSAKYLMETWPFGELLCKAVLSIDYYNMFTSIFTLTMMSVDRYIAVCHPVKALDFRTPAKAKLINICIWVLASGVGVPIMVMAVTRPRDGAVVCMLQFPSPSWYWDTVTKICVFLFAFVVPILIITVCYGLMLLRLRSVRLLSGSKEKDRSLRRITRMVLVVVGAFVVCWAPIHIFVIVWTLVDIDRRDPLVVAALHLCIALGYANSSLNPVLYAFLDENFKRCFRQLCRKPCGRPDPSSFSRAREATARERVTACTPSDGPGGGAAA

Take `NC(=O)c1ccccc1NC(=O)[C@@H]1CC=C[C@@H]2CCN(Cc3ccccc3)C(=O)[C@@H]21` (racemic) [compound 12123]: the Ki at DOR stood at 5930 nM.
Turning to `O=C(NCc1ccc(Cl)c(Cl)c1)[C@@H]1CC=C[C@@H]2CCN(CC3CCCCC3)C(=O)[C@@H]21` (racemic) [compound 12136], the Ki on DOR was 1300 nM.
On to `O=C(NCc1cccc(Br)c1)[C@@H]1CC=C[C@@H]2CCN(c3ccccc3)C(=O)[C@@H]21` (racemic) [compound 11949], for which the Ki at DOR stood at 302 nM.
With `O=C(NCC1CC1)[C@@H]1CC=C[C@@H]2CCN(CC3CC3)C(=O)[C@@H]21` (racemic) [compound 12090], the Ki at DOR is 5650 nM.
`CN(C(=O)[C@@H]1CC=C[C@@H]2CCN(C3CCCCC3)C(=O)[C@@H]21)c1ccccc1` (racemic) [compound 12160] registered a Ki on DOR of 2980 nM.
For `O=C([C@@H]1CC=C[C@@H]2CCN(c3ccccc3)C(=O)[C@@H]21)N1CCCC1` (racemic) [compound 12094], at DOR, the Ki was above 10000 nM.
For `C=CCNC(=O)[C@@H]1CC=C[C@@H]2CCN(CC3CCCCC3)C(=O)[C@@H]21` (racemic) [compound 12110], the Ki on DOR stood at 1430 nM.
As for `O=C(Nc1nccs1)[C@@H]1CC=C[C@@H]2CCN(CC3CC3)C(=O)[C@@H]21` (racemic) [compound 12157], the Ki on DOR was 3500 nM.
The same measure, in the same setting: the result for `O=C([C@@H]1CC=C[C@@H]2CCN(C3CCCCC3)C(=O)[C@@H]21)N1CCCC1` (racemic) [compound 12084] reads 6290 nM; that for `CN(C)C(=O)[C@@H]1CC=C[C@@H]2CCN(Cc3ccccc3)C(=O)[C@@H]21` (racemic) [compound 12101], above 10000 nM.
Take `NC(=O)c1ccccc1NC(=O)[C@@H]1CC=C[C@@H]2CCN(c3ccccc3)C(=O)[C@@H]21` (racemic) [compound 12117]: at DOR, affinity was put at a Ki of 648 nM.
For `O=C(Nc1cc(F)c(F)c(F)c1)[C@@H]1CC=C[C@@H]2CCN(c3ccccc3)C(=O)[C@@H]21` (racemic) [compound 12098], the affinity on DOR, expressed as Ki, was 289 nM.
In the case of `O=C(Nc1ccccc1)[C@@H]1CC=C[C@@H]2CN(Cc3ccccc3)C(=O)[C@@H]21` (racemic) [compound 14429], the Ki on DOR was 7020 nM.
Compound `O=C(NC1CCCCC1)[C@@H]1CC=C[C@@H]2CN(C3CCCCC3)C(=O)[C@@H]21` (racemic) [compound 14436] returned a Ki on DOR of 2150 nM.
The compound `O=C(Nc1cc(F)c(F)c(F)c1)[C@@H]1CC=C[C@@H]2CCN(CC3CC3)C(=O)[C@@H]21` (racemic) [compound 12093] came in with a Ki on DOR of 4370 nM.
`O=C(Nc1nccs1)[C@@H]1CC=C[C@@H]2CCCN(C3CCCCC3)C(=O)[C@@H]21` (racemic) [compound 14428]: on DOR, the affinity, expressed as Ki, was 2990 nM.
The compound `O=C(Nc1ccc([N+](=O)[O-])c(C(F)(F)F)c1)[C@@H]1CC=C[C@@H]2CCN(c3ccccc3)C(=O)[C@@H]21` (racemic) [compound 11926] yielded a Ki on DOR of 35 nM.
Turning to `O=C(NC12CC3CC(CC(C3)C1)C2)[C@@H]1CC=C[C@@H]2CCN(c3ccccc3)C(=O)[C@@H]21` (racemic) [compound 11946], affinity on DOR was put at a Ki of 116 nM.
Turning to `CC(c1ccccc1)N1CCC2C=CCC(C(=O)Nc3nccs3)C2C1=O` (mixture of isomers) [compound 12168], the Ki at DOR turned out to be 1450 nM.
In the case of `O=C(Nc1cccnc1)[C@@H]1CC=C[C@@H]2CCN(c3ccccc3)C(=O)[C@@H]21` (racemic) [compound 11927], the Ki on DOR was found to be 2100 nM.
For `O=C(Nc1ccc(F)c(F)c1)[C@@H]1CC=C[C@@H]2CCN(CC3CC3)C(=O)[C@@H]21` (racemic) [compound 12155], affinity at DOR was put at a Ki of 2250 nM.
For the compound `O=C(NCC1CC1)[C@@H]1CC=C[C@@H]2CCN(C3CCCCC3)C(=O)[C@@H]21` (racemic) [compound 12085], at DOR, the Ki is 475 nM.
As to `O=C(Nc1cccc(Cl)c1)[C@@H]1CC=C[C@@H]2CCN(CC3CC3)C(=O)[C@@H]21` (racemic) [compound 12154], the Ki at DOR amounted to 1180 nM.
On DOR, `O=C1[C@H]2[C@H](C=CC[C@H]2C(=O)N2CCCC2)CCN1Cc1ccccc1` (racemic) [compound 12099] displayed a Ki of 6650 nM.
On to `CC(C)N(C(=O)[C@@H]1CC=C[C@@H]2CCN(c3ccccc3)C(=O)[C@@H]21)C1CCCCC1` (racemic) [compound 12140], for which the affinity on DOR corresponds to a Ki of 416 nM.
On DOR, `O=C(Nc1ccc(Br)c(C(F)(F)F)c1)[C@@H]1CC=C[C@@H]2CCN(CC3CCCCC3)C(=O)[C@@H]21` (racemic) [compound 12173] showed a Ki of 508 nM.
For the compound `Cc1cc(C)c(NC(=O)[C@@H]2CC=C[C@@H]3CCN(c4ccccc4)C(=O)[C@@H]32)c(C)c1` (racemic) [compound 11951], at DOR, the Ki came to 4300 nM.
Still for that read-out and setting: the result for `Cc1ccc(CNC(=O)[C@@H]2CC=C[C@@H]3CCN(Cc4ccccc4)C(=O)[C@@H]32)cc1` (racemic) [compound 11956] reads 2360 nM; that for `O=C(Nc1cc(F)c(F)c(F)c1)[C@@H]1CC=C[C@@H]2CCN(C3CCCCC3)C(=O)[C@@H]21` (racemic) [compound 12088], 2790 nM; that for `O=C(NCc1ccccc1)[C@@H]1CC=C[C@@H]2CCN(Cc3ccccc3)C(=O)[C@@H]21` (racemic) [compound 11930], 739 nM.
In turn, `CCOC(=O)C1CCCCN1C(=O)[C@@H]1CC=C[C@@H]2CCN(CC3CCCCC3)C(=O)[C@@H]21` (mixture of isomers) [compound 12115] had a Ki at DOR of 9160 nM.
On to `CN(C(=O)[C@@H]1CC=C[C@@H]2CCN(CC3CCCCC3)C(=O)[C@@H]21)c1ccccc1` (racemic) [compound 12113], for which, on DOR, the affinity corresponds to a Ki of 2830 nM.
On the same count and under the same terms, the result for `O=C(NC1CCCCC1)[C@@H]1CC=C[C@@H]2CCCN(C3CCCCC3)C(=O)[C@@H]21` (racemic) [compound 14424] reads 1690 nM.
As to `CC(c1ccccc1)N1CCC2C=CCC(C(=O)Nc3cccc(Cl)c3)C2C1=O` (mixture of isomers) [compound 12165], the affinity at DOR corresponds to a Ki of 1210 nM.
The same measure, in the same setting: the result for `O=C(NCc1ccc(Cl)c(Cl)c1)[C@@H]1CC=C[C@@H]2CCN(c3ccccc3)C(=O)[C@@H]21` (racemic) [compound 12142] reads 103 nM; that for `O=C(Nc1ccc(Cl)cc1)[C@@H]1CC=C[C@@H]2CCN(C3CCCCC3)C(=O)[C@@H]21` (racemic) [compound 12087], 582 nM; that for `O=C(Nc1ccc(F)c(C(F)(F)F)c1)[C@@H]1CC=C[C@@H]2CCN(Cc3ccccc3)C(=O)[C@@H]21` (racemic) [compound 13474], 192 nM.
On DOR, `O=C(Nc1cccnc1)[C@@H]1CC=C[C@@H]2CCN(Cc3ccccc3)C(=O)[C@@H]21` (racemic) [compound 11933] showed a Ki of 3530 nM.
Still for that read-out and setting: the same measure for `O=C(Nc1ccc(Cl)c(C(F)(F)F)c1)[C@@H]1CC=C[C@@H]2CN(C3CCCCC3)C(=O)[C@@H]21` (racemic) [compound 14439]: 5350 nM; for `O=C(Nc1ccc(Cl)c(C(F)(F)F)c1)[C@@H]1CC=C[C@@H]2CN(Cc3ccccc3)C(=O)[C@@H]21` (racemic) [compound 14433]: 1940 nM.
In turn, `Cc1ccc(NC(=O)[C@@H]2CC=C[C@@H]3CCN(c4ccccc4)C(=O)[C@@H]32)cc1Cl` (racemic) [compound 11925] came in with a Ki at DOR of 15 nM.
With `O=C(NC1CCCCC1)[C@@H]1CC=C[C@@H]2CCN(CC3CC3)C(=O)[C@@H]21` (racemic) [compound 12152], the Ki on DOR came to 2520 nM.
In the case of `Cc1ccc(CNC(=O)[C@@H]2CC=C[C@@H]3CCN(c4ccccc4)C(=O)[C@@H]32)cc1` (racemic) [compound 11950], the Ki at DOR worked out at 297 nM.
The same measure, in the same setting: the same measure for `COc1ccc(-c2cccc(CN3CC[C@H]4C=CC[C@@H](C(=O)Nc5ccc(Cl)c(C(F)(F)F)c5)[C@H]4C3=O)c2)cc1` (racemic) [compound 12161]: 2130 nM; for `O=C(Nc1ccc(Cl)cc1)[C@@H]1CC=C[C@@H]2CCN(CC3CC3)C(=O)[C@@H]21` (racemic) [compound 12092]: 3230 nM; for `O=C(Nc1ccccc1)[C@@H]1CC=C[C@@H]2CCCN(C3CCCCC3)C(=O)[C@@H]21` (racemic) [compound 14423]: 8840 nM.
As for `CCOC(=O)c1ccc(NC(=O)[C@@H]2CC=C[C@@H]3CCN(Cc4ccccc4)C(=O)[C@@H]32)cc1` (racemic) [compound 12124], the affinity at DOR, expressed as Ki, was 7820 nM.
With `O=C(Nc1cnccn1)[C@@H]1CC=C[C@@H]2CCN(CC3CCCCC3)C(=O)[C@@H]21` (racemic) [compound 12138], the Ki on DOR turned out to be 1650 nM.
For the compound `O=C(Nc1ccccc1)[C@@H]1CC=C[C@@H]2CCN(CC3CC3)C(=O)[C@@H]21` (racemic) [compound 12153], the affinity on DOR corresponds to a Ki of 6620 nM.
On DOR, `C=CCNC(=O)[C@@H]1CC=C[C@@H]2CCN(Cc3ccccc3)C(=O)[C@@H]21` (racemic) [compound 12122] had a Ki of 3430 nM.
On the same count and under the same terms, the same measure for `O=C(NC12CC3CC(CC(C3)C1)C2)[C@@H]1CC=C[C@@H]2CCN(CC3CC3)C(=O)[C@@H]21` (racemic) [compound 11940]: 701 nM.
As for `O=C(Nc1cccc(Cl)c1)[C@@H]1CC=C[C@@H]2CN(C3CCCCC3)C(=O)[C@@H]21` (racemic) [compound 14437], the Ki at DOR was 962 nM.
The compound `CN(C)C(=O)[C@@H]1CC=C[C@@H]2CCN(c3ccccc3)C(=O)[C@@H]21` (racemic) [compound 12096] came in with a Ki at DOR above 10000 nM.
For `O=C(Nc1ccccc1)[C@@H]1CC=C[C@@H]2CCN(Cc3ccccc3)C(=O)[C@@H]21` [compound 11793], at KOR, the Ki came out at 1610 nM.
Turning to `O=C(Nc1ccc(C(F)(F)F)cc1Cl)[C@@H]1CC=C[C@@H]2CCN(c3ccccc3)C(=O)[C@@H]21` (racemic) [compound 11865], on KOR, the Ki is 180 nM.
On the same count and under the same terms, the result for `O=C(Nc1ccc(F)c(F)c1)[C@@H]1CC=C[C@@H]2CCN(CC3CCCCC3)C(=O)[C@@H]21` (racemic) [compound 11889] reads 131 nM; that for `O=C(Nc1ccc(C(F)(F)F)cc1)[C@@H]1CC=C[C@@H]2CCN(c3ccccc3)C(=O)[C@@H]21` (racemic) [compound 10822], 786 nM; that for `Cc1ccc(NC(=O)[C@@H]2CC=C[C@@H]3CCN(C4CCCCC4)C(=O)[C@@H]32)cc1Cl` (racemic) [compound 11919], 102 nM.
Take `O=C(Nc1ccc(Br)c(C(F)(F)F)c1)[C@@H]1CC=C[C@@H]2CCN(C3CCCCC3)C(=O)[C@@H]21` (racemic) [compound 11857]: the Ki on KOR was determined as 814 nM.

As usually defined, the Ki is the dissociation constant of the complex between target and ligand, obtained from inhibition or displacement.

Source of the values: US8735391B2, “Synthesis of functionalized octahydro-isoquinolin-1-one-8-carboxamides, octahydro-isoquinolin-1-one-8-carboxylic esters and analogs, and therapeutic methods” (University of Kansas, priority 2008, dated 2014).
